Source: US20250367225A1 (priority 2022, published 2025)
Entries after “also recorded” stand apart in the source; their conditions may differ. Like-named read-outs stand apart in the source and are kept apart here.

How the values were obtained:
[1] = system: ic-SARS-COV-2-mNeon infection in Huh7 cells; format: cell-based, human; conditions: for inhibition of ic-SARS-COV-2-mNeon infection by supernatant of stimulated human iNKT cells: 1 μg/mL lipid, iNKT + HeLa-hCD1d 24 h, supernatant on Huh7 cells
[2] = system: SARS-COV-2 (USA/WA1); experiment: Direct antiviral effect against SARS-COV-2 in Vero E6 cells (CPE); format: cell-based; conditions: Vero E6, MOI 0.1, 70 h
Experimental: After 30 min, SARS-COV-2 (USA/WA1) was added to each well to final MOI 0.1. Cells were incubated at 37 °C/5% CO2 for 70 h prior to scoring CPE. Percent inhibition was calculated from fold reduction in CPE over control wells receiving no drug. Remdesivir (RDV) was used as a positive control for the assay. Phosphatidylethanolamine (PE) and Biotin-phosphatidylethanolamine (B-PE) were used as a negative control. […] C57BL/6 mice (N=10) were given 2 μg of 7DW8-5 or saline by IN route 2 days before intranasal challenge with 5,000 pfu (lethal dose) of the PR8 strain. Kaplan-Meier Survival curve was plotted.

[3] = Thermostability (stated); format: physicochemical; conditions: stated in discussion, no test described
[4] = system: splenocytes; experiment: IFN-γ-secreting splenocytes in response to glycolipids in culture (hamster); format: cell-based
From the text: (§1) FIGS. 12A-B show relative number of IFN-γ-secreting splenocytes in hamster versus mouse in response to glycolipids in culture.
(§2) The relative number of IFN-γ-secreting splenocytes in hamster versus mouse in response to glycolipids in culture are shown in FIGS. 12A-B. 7DW8-5 administration affects IFN-γ-secreting splenocyte numbers in hamsters as shown in FIG. 12A. Cytokine induction

[5] = system: human RSV A2 strain; format: in vivo, BALB/c mice; conditions: 2 μg IN 2 days prior, 600,000 pfu RSV A2
[6] = system: splenocytes; experiment: IFN-γ-secreting splenocytes in response to glycolipids in culture (mouse); format: cell-based
From the text: as §1, §2

[7] = system: mouse iNKT cells; conditions: mouse iNKT cells in vitro; cited from earlier work
[8] = Toxicity noted in mice in the current study; format: in vivo
From the text: (§3) Without being bound by theory, 7DW8-5 can be an agent for pre-exposure prophylaxis to prevent infections by SARS-COV-2, RSV, influenza virus, and possibly other clinically important respiratory viruses. It is a chemical compound that is thermostable and thus simple to ship and store, cheap to manufacture, and easy to administer intranasally. It is expected that 7DW8-5 is similarly effective in people. […] Second, iNKT cells constitute up to 1% of peripheral blood mononuclear cells in both humans and mice^38,39, although the variability is greater among humans^38.

[9] = system: lung mononuclear cells; experiment: Single-cell gene-expression analysis of lung mononuclear cells; format: in vivo, BALB/c mice; conditions: 2 μg IN; 24 h; lung CD45+ cells
[10] = up to 100 μg intramuscularly; cited from earlier work
[11] = system: human iNKT cells; conditions: human iNKT cells in vitro; cited from earlier work
[12] = system: cytokines/chemokines; experiment: Cytokine/chemokine 31-Plex profile after intranasal administration; format: in vivo, BALB/c mice; conditions: 2 μg IN; one day after; BAL, nasal turbinate and lung homogenates, sera
[13] = Toxicity noted in hamsters in the current study; format: in vivo
From the text: as §3

[14] = system: IFNγ; format: in vivo, BALB/c mice; conditions: 2 μg IN; 24 h; nasal turbinate and lung homogenate supernatants, sera
[15] = system: influenza A virus (H1N1) PR/8/34 (PR8) strain; experiment: Influenza A PR8 challenge of C57BL/6 mice; format: in vivo
[16] = 6 IV doses of 0.12 mg/kg, cancer patients; cited from earlier work

CCCCCCCC/C=C\CCCCCCCC(=O)OC[C@H](COP(=O)(O)OCCNC(=O)CCCCCN)OC(=O)CCCCCCC/C=C\CCCCCCCC [1,2-dioleoyl-sn-glycero-3-phosphoethanolamine-N-(hexanoylamine), reference compound]
inhibition of ic-SARS-COV-2-mNeon infection by supernatant of stimulated human iNKT cells [1]: not

CCCCCCCCCCCCCC[C@@H](O)[C@@H](O)[C@H](CO[C@H]1O[C@H](CO)[C@H](O)[C@H](O)[C@H]1O)NC(=O)CCCCCCCCCCc1ccc(F)cc1 [7DW8-5]
direct antiviral activity against SARS-COV-2 in vitro [2]: no direct antiviral activity; also recorded: lack of a direct antiviral effect | thermostability [3]: thermostable | IFN-γ-secreting splenocyte numbers [4]: affects | body weight [5]: significantly prevented weight loss | virus replication in lung tissues ([5]; day 4, TCID50 in Hep2 cells): inhibited virus replication; also recorded: decreased | IFN-γ-secreting splenocytes [6]: increases | immunostimulatory activity compared with α-GalCer [7]: even more potent immunostimulatory activity | toxicity [8]: lack of toxicity | IFN-γ production in proliferative NK cells, T cells, iNKT cells (single-cell analysis) [9]: apparent shift toward IFN-γ production | adverse reactions [10]: did not lead to any adverse reactions | immunostimulatory activity [11]: potent stimulatory effect | cytokines/chemokines incl. IFN-γ, IL-5, IL-6, IP-10, TNF-α, MCP1, MIG [12]: Marked upregulation | inhibition of ic-SARS-COV-2-mNeon infection by supernatant of stimulated human iNKT cells [1]: display anti-viral activity; also recorded: significantly inhibit | inhibition by supernatant with neutralizing anti-human IFN-γ Ab added ([1]; anti-human IFN-γ antibody 1 μg/mL): inhibited; also recorded: completely abolished | toxicity [13]: lack of toxicity | IFN-γ induction by ELISA [14]: No evidence of IFN-γ induction; also recorded: minimal level | body weight ([15]; 2 μg IN 2 days prior, 5,000 pfu PR8, day 3): significantly maintained body weight | body weight loss ([15]; 2 μg IN one day before 200 pfu PR8, day 3 (FIG. 7)): lack of body weight loss | body weight loss ([15]; 2 μg IN, 5000 pfu PR8, monitored every day after challenge (FIG. 8C)): ameliorated | survival ([15]; 2 μg IN, lethal dose 5×10^3 PFU PR8, all control mice died by Day 10): 8 of 10 and higher probability of survival

CCCCCCCCCCCCCCCCCCCCCCCCCC(=O)NC(CO[C@H]1O[C@H](CO)[C@H](O)[C@H](O)[C@H]1O)[C@H](O)[C@H](O)CCCCCCCCCCCCCC (stereo partly drawn) [α-GalCer, N-[(3S,4R)-3,4-dihydroxy-1-[(2S,3R,4S,5R,6R)-3,4,5-trihydroxy-6-(hydroxymethyl)oxan-2-yl]oxyoctadecan-2-yl]hexacosanamide]
toxicity [16]: without evidence of toxicity
